Assay [1] addresses T1, Ba/F3 ERBB2 A775_G776insYVMA (Homo sapiens, UniProt P04626, DUP772-775, cells depend on it).
T1 construct: Ba/F3 cell lines were engineered to express human ERBB2 or EGFR kinases, rendering the cells IL-3 independent
Description: Cell viability assay (CellTiter Glo). It counts as cell-based, mouse. Particulars: 72 hours; 300 cells per well, 384-well plates (Table B5); read-out: Cell Line: Ba/F3 ERBB2 A775 G776ins YVMA IC50. Here is the method: Cells were treated with compounds, and cell viability was measured as a metric of kinase inhibition.
The Ba/F3 cell line is IL-3-dependent mouse cell line derived from the C3H mouse strain. Ba/F3 cell lines were engineered to express human ERBB2 or EGFR kinases, rendering the cells IL-3 independent. The lines were generated via retroviral transduction utilizing a Moloney murine leukemia virus (MMLV) promoter, and constructs are stably integrated into the cell genome.
Similarly, Ba/F3 cell lines engineered to express EGFR, ERBB2, or ERBB2 mutants were grown, harvested, counted and seeded at 3000 cells per well in 96-well plates for the data sets shown in Tables B3-B4, and seeded at 300 cells per well in 384-well plates for the data set shown in Table B5. A subset of wells contained media only (low control, “LC”).
Table B2 provides the growth media and number of cells seeded per well for the each cell line.
Compounds were dissolved in DMSO and serially diluted. Serially-diluted compound or a DMSO only control (high control, “HC”) was added to the plated cells in each well. […] The final proportion of DMSO never exceeded 0.1%.
Plates were placed in a 37° C., 5% CO2 incubator for 72 hours. Plates were then removed from the incubator and equilibrated for 15 minutes at room temperature. 40 IA of CellTiter Glo reagent (Promega) was added to measure the relative level of metabolically active cells by quantifying intracellular ATP concentrations. Plates were incubated for 30 minutes at room temperature, and luminescence was measured. Percent viability was normalized to a vehicle control only using the following formula: % viability=100×(LumSample−LumLC) (LumHC−LumLC). Graphical curves were fitted using a nonlinear regression model with a sigmoidal dose response.
In general terms: Cellular ATP, detected with luciferase, serves as a proxy for viable cell number.

Assay [2] has as its target T2, phosphorylated ERBB2 (pERBB2) (Homo sapiens, UniProt P04626).
T2 construct: endogenous in cells; host or cells: BT-474
Description: Detection of phosphorylated ERBB2 (pERBB2) by ELISA in BT-474 cells. It is filed as cell-based. To be noted: four hours incubation with compound, OD 450 nm. On the procedure:
BT-474 cells were seeded into a 96-well at 2.0*10^4 cells/100 μl/well.
Compounds were dissolved and serially diluted in DMSO. The compounds were then were added, mixed, and incubated for four hours at 37° C., 5% CO2. Compounds were added using four-fold dilutions at final concentrations ranging from 10 μM to 0.01 nM.
Following the four hour incubation with compounds, cell lysates were prepared. Plates were centrifuged for 5 min at 3000 RPM, and supernatant was removed from each well. Cells were washed 3 times by resuspension in 150 μl PBS, followed by centrifugation and removal of the supernatant, as above. […] Cells were incubated with lysis buffer for 1 hour at 4° C., and then stored at −80° C.
Enzyme-linked immunosorbent assays (ELISA) were performed to measure phosphorylated ERBB2 levels. […] The next day, plates were washed with PBS+0.05% Tween20 (PBST). 150 μl of 5% BSA blocking solution was added for 1 hour at room temperature, with shaking. Plates were washed with PBST. Cell lysates were thawed and 100 μl of lysate was added to the ELISA plate. The plates were incubated for 2 hours at room temperature, with shaking. […] Plates were incubated for 1 hour at room temperature, with shaking. Plates were then washed with PBST, and 100 μl TMB substrate solution (R&D Systems, cat #DY999) was added. Plate were incubated in the dark for 20 minutes at room temperature. 50 μl of Stop solution (R&D Systems, cat #DY994) (50 μl) was added to each well and mixed.
Optical density at 450 nm was read on an EnSpire plate reader (Perkin Elmer). The remaining kinase activity by calculated using the following formula: % Relative activity=100×(A450sample−A450LC)/(A450HC−A450LC). The low and high control values (“LC” and “HC”) were generated from lysate from wells without cells or with cells treated with 0.1% DMSO, respectively.

Assay [3] addresses T3, phosphorylated EGFR (pEGFR) (Homo sapiens, UniProt P00533).
T3 construct: endogenous in cells; host or cells: A431
Description: Detection of phosphorylated EGFR (pEGFR) in EGF-stimulated A431 cells (AlphaLISA). It is filed as cell-based. To be noted: A431 cells (10% FBS), 4 hours with compound, then EGF 30 ng/mL for 10 minutes. Here is the method:
Enzyme-linked immunosorbent assays (ELISA) were performed to measure phosphorylated EGFR levels using A431 cells (10% FBS). A431 (1.0*10^4 cells/40 μl/well) cells were seeded in 384 well. Compounds were dissolved in DMSO, serially diluted in DMSO and then were added, mixed, and incubated for 4 hours at 37° C., 5% CO2. Following the 4-hours incubation, cells were stimulated for 10 minutes with EGF (Invitrogen, cat #PHG0311) at a final concentration of 30 ng/mL in the incubator. The media was aspirated and cells were lysed in 10 μL lysis buffer with protease and phosphatase inhibitors (PerkinElmer, cat #ALSU-PEGFR-A50K). The plates were placed on a shaker for 5 minutes and then incubated for 30 min at 4° C. for complete lysis. The lysate was transferred to an Optiplate (Perkin Elmer, cat #6007290).
Acceptor mix (PerkinElmer, cat #ALSU-PEGFR-A50K) was prepared just before use and 5 μL was dispensed to all the wells, followed by a 1.5-2 h incubation at room temperature in dark. The donor mix (PerkinElmer, cat #ALSU-PEGFR-A50K) was prepared under low light conditions prior to use and […] of donor mix was added to all the wells under subdued lighting or green filters. The plates were placed on a shaker for 5 min, sealed, and incubated overnight at room temperature in dark. Plates were read on the Envision (PerkinElmer) using standard AlphaLISA settings.
The percentage of inhibition on EGFR phosphorylation was calculated following equation: % Inhibition=100×(LumHC−LumSample)/(LumHC−LumLC). The low and high controls (LC/HC) are generated from lysate from wells with cells treated with DMSO or […] Staurosporine (BioAustralis, cat #BIA-S1086), […]. IC50 values were calculated by fitting the Curve using XLfit (v5.3.1.3), equation 201: Y=Bottom+(Top−Bottom)/(1+10^((LogIC50−X)*HillSlope)).
A general note: In Alpha technology, singlet oxygen from a donor bead excites a nearby acceptor bead.

SMILES strings stand for the structures. Structures can show the parent of a compound that is named as a salt.

As usually defined, the IC50 is the midpoint of a concentration-inhibition curve.

T1 sequence (P04626 with tags, fused parts or gaps DUP772-775): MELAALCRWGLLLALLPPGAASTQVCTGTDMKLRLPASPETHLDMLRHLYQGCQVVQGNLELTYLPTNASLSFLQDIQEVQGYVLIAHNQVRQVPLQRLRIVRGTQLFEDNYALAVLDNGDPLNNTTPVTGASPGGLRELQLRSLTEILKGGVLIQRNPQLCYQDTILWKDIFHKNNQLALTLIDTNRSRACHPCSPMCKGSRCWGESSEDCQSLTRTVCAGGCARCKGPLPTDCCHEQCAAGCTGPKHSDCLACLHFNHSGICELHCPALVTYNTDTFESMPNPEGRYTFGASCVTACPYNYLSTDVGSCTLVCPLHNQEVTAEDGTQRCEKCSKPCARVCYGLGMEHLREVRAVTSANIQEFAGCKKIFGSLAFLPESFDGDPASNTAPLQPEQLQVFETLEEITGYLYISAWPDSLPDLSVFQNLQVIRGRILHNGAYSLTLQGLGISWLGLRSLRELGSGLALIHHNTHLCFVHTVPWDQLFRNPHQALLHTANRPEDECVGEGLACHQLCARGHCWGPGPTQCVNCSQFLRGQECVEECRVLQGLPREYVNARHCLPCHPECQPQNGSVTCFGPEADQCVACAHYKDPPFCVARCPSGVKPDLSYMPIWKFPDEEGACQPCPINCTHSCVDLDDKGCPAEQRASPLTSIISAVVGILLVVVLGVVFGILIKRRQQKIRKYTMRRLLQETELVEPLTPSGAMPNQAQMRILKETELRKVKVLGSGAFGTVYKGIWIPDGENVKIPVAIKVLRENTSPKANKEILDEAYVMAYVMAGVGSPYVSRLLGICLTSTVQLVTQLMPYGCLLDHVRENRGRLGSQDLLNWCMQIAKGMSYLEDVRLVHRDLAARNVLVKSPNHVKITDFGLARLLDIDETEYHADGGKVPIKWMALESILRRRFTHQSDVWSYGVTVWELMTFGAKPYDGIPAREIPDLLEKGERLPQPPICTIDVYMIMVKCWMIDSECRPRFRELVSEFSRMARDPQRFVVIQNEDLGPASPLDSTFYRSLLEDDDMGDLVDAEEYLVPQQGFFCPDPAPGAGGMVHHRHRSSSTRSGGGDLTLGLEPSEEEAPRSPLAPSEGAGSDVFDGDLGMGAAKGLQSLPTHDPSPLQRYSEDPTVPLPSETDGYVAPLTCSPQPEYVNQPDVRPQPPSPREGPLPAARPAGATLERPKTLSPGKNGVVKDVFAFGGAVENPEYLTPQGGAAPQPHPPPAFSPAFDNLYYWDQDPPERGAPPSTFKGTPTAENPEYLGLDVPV
T3 sequence (P00533 25-1210): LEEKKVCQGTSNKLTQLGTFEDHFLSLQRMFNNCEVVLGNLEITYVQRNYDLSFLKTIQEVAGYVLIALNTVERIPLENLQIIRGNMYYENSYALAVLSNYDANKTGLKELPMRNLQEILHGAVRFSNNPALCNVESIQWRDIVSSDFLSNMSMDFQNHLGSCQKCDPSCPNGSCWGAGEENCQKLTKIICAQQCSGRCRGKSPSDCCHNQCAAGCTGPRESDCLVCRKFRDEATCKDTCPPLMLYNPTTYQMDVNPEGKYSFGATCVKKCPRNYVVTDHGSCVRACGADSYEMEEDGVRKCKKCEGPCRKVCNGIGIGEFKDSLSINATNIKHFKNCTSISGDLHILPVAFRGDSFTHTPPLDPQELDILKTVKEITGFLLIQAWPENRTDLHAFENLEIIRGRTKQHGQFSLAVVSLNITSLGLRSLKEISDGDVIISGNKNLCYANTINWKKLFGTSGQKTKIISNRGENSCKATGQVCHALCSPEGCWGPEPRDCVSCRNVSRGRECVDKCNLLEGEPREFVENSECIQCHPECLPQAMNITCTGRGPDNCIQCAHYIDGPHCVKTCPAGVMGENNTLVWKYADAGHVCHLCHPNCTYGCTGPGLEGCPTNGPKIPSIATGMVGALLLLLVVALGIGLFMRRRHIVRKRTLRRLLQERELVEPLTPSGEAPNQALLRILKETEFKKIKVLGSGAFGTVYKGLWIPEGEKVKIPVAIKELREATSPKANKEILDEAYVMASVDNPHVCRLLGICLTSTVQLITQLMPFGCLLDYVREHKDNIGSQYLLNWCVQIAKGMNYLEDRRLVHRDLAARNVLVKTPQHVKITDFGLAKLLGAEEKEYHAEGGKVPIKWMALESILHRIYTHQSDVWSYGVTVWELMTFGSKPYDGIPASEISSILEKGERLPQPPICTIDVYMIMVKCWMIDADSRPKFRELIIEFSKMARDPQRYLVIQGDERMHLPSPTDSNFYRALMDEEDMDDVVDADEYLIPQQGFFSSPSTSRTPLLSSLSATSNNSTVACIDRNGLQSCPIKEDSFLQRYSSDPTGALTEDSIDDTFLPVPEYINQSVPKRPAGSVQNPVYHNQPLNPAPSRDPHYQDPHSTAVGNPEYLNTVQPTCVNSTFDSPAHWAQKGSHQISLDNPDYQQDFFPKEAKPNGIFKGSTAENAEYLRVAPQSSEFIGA
T2 sequence (P04626 23-1255): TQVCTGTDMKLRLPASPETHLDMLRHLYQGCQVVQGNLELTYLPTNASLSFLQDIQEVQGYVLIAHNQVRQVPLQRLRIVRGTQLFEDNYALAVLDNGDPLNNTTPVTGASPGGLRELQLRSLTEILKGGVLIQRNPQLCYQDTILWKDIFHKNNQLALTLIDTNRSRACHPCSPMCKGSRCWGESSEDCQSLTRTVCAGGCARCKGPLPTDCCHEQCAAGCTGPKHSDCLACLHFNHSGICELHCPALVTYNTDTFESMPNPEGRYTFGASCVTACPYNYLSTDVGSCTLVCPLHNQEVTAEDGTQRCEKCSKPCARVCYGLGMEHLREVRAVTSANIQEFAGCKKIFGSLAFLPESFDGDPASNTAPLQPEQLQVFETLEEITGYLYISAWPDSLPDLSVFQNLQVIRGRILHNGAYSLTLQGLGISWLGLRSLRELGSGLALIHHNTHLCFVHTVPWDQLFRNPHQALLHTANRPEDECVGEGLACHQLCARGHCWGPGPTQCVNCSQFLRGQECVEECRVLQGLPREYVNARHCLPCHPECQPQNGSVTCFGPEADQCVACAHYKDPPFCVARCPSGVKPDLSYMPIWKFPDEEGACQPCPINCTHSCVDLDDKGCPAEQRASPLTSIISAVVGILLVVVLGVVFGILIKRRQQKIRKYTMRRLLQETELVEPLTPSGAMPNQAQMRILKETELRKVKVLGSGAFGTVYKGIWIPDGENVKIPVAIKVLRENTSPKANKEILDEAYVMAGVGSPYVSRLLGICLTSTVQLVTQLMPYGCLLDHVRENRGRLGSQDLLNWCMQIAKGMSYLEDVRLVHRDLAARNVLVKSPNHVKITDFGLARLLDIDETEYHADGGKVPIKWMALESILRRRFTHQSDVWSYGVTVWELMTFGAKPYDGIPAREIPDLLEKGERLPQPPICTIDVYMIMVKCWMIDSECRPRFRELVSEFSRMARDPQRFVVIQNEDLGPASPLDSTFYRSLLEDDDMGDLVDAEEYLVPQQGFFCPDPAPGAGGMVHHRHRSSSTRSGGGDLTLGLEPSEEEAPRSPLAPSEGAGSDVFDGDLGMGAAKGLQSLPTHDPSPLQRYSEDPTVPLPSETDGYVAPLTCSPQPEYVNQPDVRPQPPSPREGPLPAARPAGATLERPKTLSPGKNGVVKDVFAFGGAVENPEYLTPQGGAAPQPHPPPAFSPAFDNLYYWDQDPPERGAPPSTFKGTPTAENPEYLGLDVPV

Regarding `CC#CC(=O)Nc1ccc2ncnc(Nc3ccc(Oc4ccc5c(c4)ncn5C)c(C)c3)c2c1F` [Compound 213, N-[5-fluoro-4-({3-methyl-4-[(1-methyl-1,3-benzodiazol-5-yl)oxy]phenyl}amino)quinazolin-6-yl]but-2-ynamide], in assay [1], the GI50 is 9.65 nM. Further, the values for the IC50 in assay [2] and in assay [3] were 32.4 nM and 579 nM, respectively.

As for `CC#CC(=O)Nc1cc2c(Nc3ccc(Cc4ccn5ncnc5c4)c(C)c3)ncnc2cc1OCCCN(C)C` [Compound 189, N-{7-[3-(dimethylamino)propoxy]-4-[(3-methyl-4-{[1,2,4]triazolo[1,5-a]pyridin-7-ylmethyl}phenyl)amino]quinazolin-6-yl}but-2-ynamide], the GI50 in assay [1] was 2.47 nM. Moreover, the IC50 in assay [2] stood at 1.87 nM; in assay [3] it was 106 nM.

With `CC#CC(=O)Nc1cc2c(Nc3ccc(Cc4ccn5ncnc5c4)c(F)c3)ncnc2cc1OCCN(C)C` [Compound 202, N-{7-[2-(dimethylamino)ethoxy]-4-[(3-fluoro-4-{[1,2,4]triazolo[1,5-a]pyridin-7-ylmethyl}phenyl)amino]quinazolin-6-yl}but-2-ynamide], in assay [1], the GI50 was 49.4 nM. In addition, the IC50 in assay [2] turned out to be 21.8 nM; in assay [3] it was 543 nM.

As to `CCOc1cc2ncnc(Nc3ccc(Oc4ccn5ncnc5c4)c(C)c3)c2cc1NC(=O)C#CCN1CCN(C)CC1` [Compound 208, N-{7-ethoxy-4-[(3-methyl-4-{[1,2,4]triazolo[1,5-a]pyridin-7-yloxy}phenyl)amino]quinazolin-6-yl}-4-(4-methylpiperazin-1-yl)but-2-ynamide triformate], the GI50 in assay [1] was > 500 nM. Further, the IC50 in assay [2] was found to be 1180 nM; in assay [3] it was 2260 nM.

Take `CC#CC(=O)Nc1cc2c(Nc3ccc(Oc4ccn5ncnc5c4)c(C)c3)ncnc2cn1` [Compound 199, N-(4-((4-([1,2,4]triazolo[1,5-a]pyridin-7-yloxy)-3-methylphenyl)amino)pyrido[3,4-d]pyrimidin-6-yl)but-2-ynamide]: the GI50 in assay [1] amounted to 2.51 nM. The IC50 in assay [2] was 4.7 nM; in assay [3] it was 57.5 nM.

On to `CC#CC(=O)Nc1cc2c(Nc3ccc(Oc4ccn5ncnc5c4)c(C4CC4)c3)ncnc2cc1OCCN(C)C` [Compound 195, N-{4-[(3-cyclopropyl-4-{[1,2,4]triazolo[1,5-a]pyridin-7-yloxy}phenyl)amino]-7-[2-(dimethylamino)ethoxy]quinazolin-6-yl}but-2-ynamide], for which, in assay [1], the GI50 stood at 86.8 nM. In addition, the results for the IC50 in assay [2] and in assay [3] were 104 nM and 7070 nM, respectively.

For `Cc1c(Oc2ccn3ncnc3c2)ccc(Nc2ncnc3cc(OCCN(C)C)c(NC(=O)C#CC4CC4)cc23)c1F` [Compound 179, N-(4-((4-([1,2,4]triazolo[1,5-a]pyridin-7-yloxy)-2-fluoro-3-methylphenyl)amino)-7-(2-(dimethylamino)ethoxy)quinazolin-6-yl)-3-cyclopropylpropiolamide], the values for the IC50 in assay [2] and in assay [3] were 121 nM and 2550 nM, respectively.

Consider `CC#CC(=O)Nc1cc2c(Nc3cc(C)c(Oc4ccn5ncnc5c4)cc3F)ncnc2cc1OCCN(C)C` [Compound 182, N-{7-[2-(dimethylamino)ethoxy]-4-[(2-fluoro-5-methyl-4-{[1,2,4]triazolo[1,5-a]pyridin-7-yloxy}phenyl)amino]quinazolin-6-yl}but-2-ynamide], for which the IC50 was determined as 13.2 nM in assay [2] and 1490 nM in assay [3].

With `CC#CC(=O)Nc1cc2c(Nc3cc(Cl)c(Oc4ccn5ncnc5c4)cc3F)ncnc2cc1OCCN(C)C` [Compound 197, N-(4-((4-([1,2,4]triazolo[1,5-a]pyridin-7-yloxy)-5-chloro-2-fluorophenyl)amino)-7-(2-(dimethylamino)ethoxy)quinazolin-6-yl)but-2-ynamide], the values for the IC50 in assay [2] and in assay [3] were 11.4 nM and 555 nM, respectively.

For the compound `CC#CC(=O)Nc1cc2c(Nc3ccc(Oc4ccn5ncnc5c4)c(C)c3F)ncnc2cc1OCCN(C)C` [Compound 180, N-(4-((4-([1,2,4]triazolo[1,5-a]pyridin-7-yloxy)-2-fluoro-3-methylphenyl)amino)-7-(2-(dimethylamino)ethoxy)quinazolin-6-yl)but-2-ynamide], the IC50 in assay [2] was 23.4 nM; in assay [3], 1590 nM.

`CC#CC(=O)Nc1cc2c(Nc3ccc(Oc4ccc(C)nc4)c(C)c3)ncnc2cc1OCCN(C)C` [Compound 186, N-{7-[2-(dimethylamino)ethoxy]-4-({3-methyl-4-[(6-methylpyridin-3-yl)oxy]phenyl}amino)quinazolin-6-yl}but-2-ynamide]: the IC50 in assay [2] was 16.1 nM; in assay [3] it was 74.5 nM.

On to `Cc1cc(Nc2ncnc3ccc(NC(=O)C#CC4CC4)cc23)ccc1Oc1ccc([C@@H](F)CF)nc1` [Compound 188, (R)-3-cyclopropyl-N-(4-((4-((6-(1,2-difluoroethyl)pyridin-3-yl)oxy)-3-methylphenyl)amino)quinazolin-6-yl)propiolamide], for which the results for the IC50 in assay [2] and in assay [3] were 78 nM and 297 nM, respectively.

With `Cc1cc(Nc2ncnc3cc(OCCN(C)C)c(NC(=O)C#CC4CC4)cc23)c(F)cc1Oc1ccn2ncnc2c1` [Compound 181, N-(4-(4-([1,2,4]triazolo[1,5-a]pyridin-7-yloxy)-2-fluoro-5-methylphenylamino)-7-(2-(dimethylamino)ethoxy)quinazolin-6-yl)-3-cyclopropylpropiolamide formate], the IC50 in assay [2] worked out at 22.8 nM; in assay [3], 971 nM.

With `Cc1cc(Nc2ncnc3cc(OCCN(C)C)c(NC(=O)C#CC4CC4)cc23)ccc1Oc1ccn2ncnc2c1` [Compound 170, 3-cyclopropyl-N-{7-[2-(dimethylamino)ethoxy]-4-[(3-methyl-4-{[1,2,4]triazolo[1,5-a]pyridin-7-yloxy}phenyl)amino]quinazolin-6-yl}prop-2-ynamide hydrochloride], the IC50 in assay [2] worked out at 14 nM; in assay [3], 418 nM.

The values are drawn from patent US20230265098A1, “ALKYNE QUINAZOLINE DERIVATIVES AS INHIBITORS OF ERBB2” (EnLiven Therapeutics, Inc., priority 2020, published 2023).
